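Where inhibition never reached the appropriate level, the endpoint shown equals the highest concentration tested. Otherwise, values were interpolated linearly from a five-concentration, 48-hour dose response in 96-well plates. TGI marks complete inhibition of growth.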
What was measured:
Experiment in all cases: NCI tumour cell line growth inhibition, 48 h
NCI-H23 lung = tested on: NCI-H23 lung
OVCAR-8 ovarian = tested on: OVCAR-8 ovarian
HOP-92 NSCLC = tested on: HOP-92 NSCLC
HT29 colon = tested on: HT29 colon
SNB-19 CNS = tested on: SNB-19 CNS
MDA-MB-231 breast = tested on: MDA-MB-231 breast
DU-145 prostate = tested on: DU-145 prostate
UO-31 renal = tested on: UO-31 renal
OVCAR-3 ovarian = tested on: OVCAR-3 ovarian
PC-3 prostate = tested on: PC-3 prostate
RPMI-8226 leukemia = tested on: RPMI-8226 leukemia
EKVX NSCLC = tested on: EKVX NSCLC
SF-295 CNS = tested on: SF-295 CNS
A549 NSCLC = tested on: A549 NSCLC
MALME-3M melanoma = tested on: MALME-3M melanoma
SR leukemia = tested on: SR leukemia
SK-MEL-5 melanoma = tested on: SK-MEL-5 melanoma
IGROV1 ovarian = tested on: IGROV1 ovarian
T-47D breast = tested on: T-47D breast
U251 CNS = tested on: U251 CNS
SN12C renal = tested on: SN12C renal
TK-10 renal = tested on: TK-10 renal
SK-OV-3 ovarian = tested on: SK-OV-3 ovarian
UACC-62 melanoma = tested on: UACC-62 melanoma
SW-620 colon = tested on: SW-620 colon
SK-MEL-2 melanoma = tested on: SK-MEL-2 melanoma
MDA-MB-435 = tested on: MDA-MB-435
M14 melanoma = tested on: M14 melanoma
K-562 leukemia = tested on: K-562 leukemia
MDA-N = tested on: MDA-N
SF-268 CNS = tested on: SF-268 CNS
LOX IMVI melanoma = tested on: LOX IMVI melanoma
RXF 393 renal = tested on: RXF 393 renal
HCC-2998 colon = tested on: HCC-2998 colon
ACHN renal = tested on: ACHN renal
MOLT-4 leukemia = tested on: MOLT-4 leukemia
HOP-62 NSCLC = tested on: HOP-62 NSCLC
NCI-H460 lung = tested on: NCI-H460 lung
A498 renal = tested on: A498 renal
NCI/ADR-RES ovarian = tested on: NCI/ADR-RES ovarian
KM12 colon = tested on: KM12 colon
HCT-116 colon = tested on: HCT-116 colon
CAKI-1 renal = tested on: CAKI-1 renal
NCI-H226 lung = tested on: NCI-H226 lung
786-0 renal = tested on: 786-0 renal
HCT-15 colon = tested on: HCT-15 colon
MCF7 breast = tested on: MCF7 breast
BT-549 breast = tested on: BT-549 breast
OVCAR-5 ovarian = tested on: OVCAR-5 ovarian
UACC-257 melanoma = tested on: UACC-257 melanoma
CCRF-CEM leukemia = tested on: CCRF-CEM leukemia
OVCAR-4 ovarian = tested on: OVCAR-4 ovarian
SNB-75 CNS = tested on: SNB-75 CNS
COLO 205 colon = tested on: COLO 205 colon
SK-MEL-28 melanoma = tested on: SK-MEL-28 melanoma
HS 578T breast = tested on: HS 578T breast
SF-539 CNS = tested on: SF-539 CNS
HL-60(TB) leukemia = tested on: HL-60(TB) leukemia

## O=C(N/N=C/c1ccc(Cl)cc1)c1ccccc1Nc1ccccc1C(=O)N/N=C/c1ccc(Cl)cc1
NCI-H23 lung
  TGI: > 100 µM
OVCAR-8 ovarian
  TGI: > 100 µM
HOP-92 NSCLC
  TGI: > 100 µM
HT29 colon
  TGI: > 100 µM
SNB-19 CNS
  TGI: > 100 µM
MDA-MB-231 breast
  TGI: > 100 µM
DU-145 prostate
  TGI: > 100 µM
UO-31 renal
  TGI: > 100 µM
OVCAR-3 ovarian
  TGI: > 100 µM
PC-3 prostate
  TGI: > 100 µM
RPMI-8226 leukemia
  TGI: > 100 µM
EKVX NSCLC
  TGI: > 100 µM
SF-295 CNS
  TGI: > 100 µM
A549 NSCLC
  TGI: > 100 µM
MALME-3M melanoma
  TGI: > 100 µM
SR leukemia
  TGI: > 100 µM
SK-MEL-5 melanoma
  TGI: > 100 µM
IGROV1 ovarian
  TGI: > 100 µM
T-47D breast
  TGI: > 100 µM
U251 CNS
  TGI: > 100 µM
SN12C renal
  TGI: > 100 µM
TK-10 renal
  TGI: > 100 µM
SK-OV-3 ovarian
  TGI: > 100 µM
UACC-62 melanoma
  TGI: > 100 µM
SW-620 colon
  TGI: > 100 µM
SK-MEL-2 melanoma
  TGI: > 100 µM
MDA-MB-435
  TGI: > 100 µM
M14 melanoma
  TGI: > 100 µM
K-562 leukemia
  TGI: > 100 µM
MDA-N
  TGI: > 100 µM
SF-268 CNS
  TGI: > 100 µM
LOX IMVI melanoma
  TGI: > 100 µM
RXF 393 renal
  TGI: > 100 µM
HCC-2998 colon
  TGI: > 100 µM
ACHN renal
  TGI: > 100 µM
MOLT-4 leukemia
  TGI: > 100 µM
HOP-62 NSCLC
  TGI: > 100 µM
NCI-H460 lung
  TGI: > 100 µM
A498 renal
  TGI: > 100 µM
NCI/ADR-RES ovarian
  TGI: > 100 µM
KM12 colon
  TGI: > 100 µM
HCT-116 colon
  TGI: > 100 µM
CAKI-1 renal
  TGI: > 100 µM
NCI-H226 lung
  TGI: > 100 µM
786-0 renal
  TGI: > 100 µM
HCT-15 colon
  TGI: > 100 µM
MCF7 breast
  TGI: > 100 µM
BT-549 breast
  TGI: > 100 µM
OVCAR-5 ovarian
  TGI: > 100 µM
UACC-257 melanoma
  TGI: > 100 µM
CCRF-CEM leukemia
  TGI: > 100 µM
OVCAR-4 ovarian
  TGI: > 100 µM
SNB-75 CNS
  TGI: > 100 µM
COLO 205 colon
  TGI: > 100 µM
SK-MEL-28 melanoma
  TGI: > 100 µM

## COc1cc2c(cc1OC)C(=O)/C(=C/c1cc(Cl)cc(Cl)c1)C2
NCI-H23 lung
  TGI: > 100 µM
OVCAR-8 ovarian
  TGI: > 100 µM
HOP-92 NSCLC
  TGI: 99.6 µM
HT29 colon
  TGI: > 100 µM
SNB-19 CNS
  TGI: > 100 µM
MDA-MB-231 breast
  TGI: > 100 µM
DU-145 prostate
  TGI: > 100 µM
UO-31 renal
  TGI: > 100 µM
HS 578T breast
  TGI: > 100 µM
OVCAR-3 ovarian
  TGI: > 100 µM
PC-3 prostate
  TGI: > 100 µM
RPMI-8226 leukemia
  TGI: > 100 µM
EKVX NSCLC
  TGI: > 100 µM
A549 NSCLC
  TGI: > 100 µM
MALME-3M melanoma
  TGI: > 59.7 µM
SK-MEL-5 melanoma
  TGI: > 24.1 µM
IGROV1 ovarian
  TGI: > 100 µM
T-47D breast
  TGI: > 100 µM
U251 CNS
  TGI: > 100 µM
SN12C renal
  TGI: > 100 µM
TK-10 renal
  TGI: > 100 µM
SK-OV-3 ovarian
  TGI: > 54.6 µM
UACC-62 melanoma
  TGI: > 95.8 µM
SW-620 colon
  TGI: > 100 µM
SK-MEL-2 melanoma
  TGI: > 95 µM
MDA-MB-435
  TGI: > 19.6 µM
M14 melanoma
  TGI: > 100 µM
K-562 leukemia
  TGI: > 44.4 µM
MDA-N
  TGI: 4.86 µM
SF-268 CNS
  TGI: > 100 µM
LOX IMVI melanoma
  TGI: > 100 µM
RXF 393 renal
  TGI: > 100 µM
HCC-2998 colon
  TGI: > 100 µM
ACHN renal
  TGI: > 100 µM
MOLT-4 leukemia
  TGI: > 100 µM
HOP-62 NSCLC
  TGI: > 100 µM
NCI-H460 lung
  TGI: > 100 µM
A498 renal
  TGI: > 100 µM
NCI/ADR-RES ovarian
  TGI: 10.4 µM
KM12 colon
  TGI: > 21.4 µM
HCT-116 colon
  TGI: > 100 µM
CAKI-1 renal
  TGI: > 100 µM
NCI-H226 lung
  TGI: > 100 µM
786-0 renal
  TGI: > 89.7 µM
HCT-15 colon
  TGI: > 100 µM
MCF7 breast
  TGI: > 100 µM
BT-549 breast
  TGI: > 100 µM
SF-539 CNS
  TGI: 9.94 µM
OVCAR-5 ovarian
  TGI: > 100 µM
UACC-257 melanoma
  TGI: > 100 µM
CCRF-CEM leukemia
  TGI: > 100 µM
HL-60(TB) leukemia
  TGI: > 100 µM
OVCAR-4 ovarian
  TGI: 98.1 µM
COLO 205 colon
  TGI: > 100 µM
SK-MEL-28 melanoma
  TGI: > 100 µM

From PubChem BioAssay (NCI)
